From PubChem BioAssay (NCI)
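Values below derive from 48-hour exposures of cells grown in 96-well plates, with endpoints linearly interpolated between the two concentrations bracketing the appropriate inhibition level. GI50: concentration for 50% inhibition of growth. TGI marks complete inhibition of growth.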

Legend:
Experiment in all cases: NCI-60 cell line screen, 48 h
[1] = tested on: MOLT-4 leukemia
[2] = tested on: HCC-2998 colon
[3] = tested on: HS 578T breast
[4] = tested on: SW-620 colon
[5] = tested on: SR leukemia
[6] = tested on: PC-3 prostate
[7] = tested on: SNB-19 CNS
[8] = tested on: IGROV1 ovarian
[9] = tested on: T-47D breast
[10] = tested on: SK-MEL-2 melanoma

Compound | TGI [1] [µM] | TGI [2] [µM] | TGI [3] [µM] | TGI [4] [µM] | TGI [5] [µM] | TGI [6] [µM] | TGI [7] [µM] | TGI [8] [µM] | TGI [9] [µM] | TGI [10] [µM] | GI50 [1] [µM] | GI50 [2] [µM] | GI50 [4] [µM] | GI50 [7] [µM] | GI50 [10] [µM] | GI50 [8] [µM]
COc1ccc(NS(=O)c2cccc(C)c2)cc1 (centres undefined) | > 100 | 33.6 | > 100 | > 100 | > 100 | > 100 | > 100 | > 100 |  |  |  |  |  |  |  | 
C=C1C(=O)O[C@H]2C3C(=C(C)CC[C@@H]12)C(=O)[C@@H]1OC31C (some centres undefined) | 3.27 | 29.7 | 9.8 | 2.6 |  | 7.1 | 29.5 | 11.8 | 3.96 | 18.3 |  |  |  |  |  | 
O=S(=O)(/N=C1/SC(=Nc2ccccc2)N(c2ccccc2)/C1=N/S(=O)(=O)c1ccccc1)c1ccccc1 | 62.2 | 48.7 | > 100 | 44.2 | 50.6 |  | 96.8 | 46.7 |  | 45 |  |  |  |  |  | 
O=C(NC/C=C/Br)NC1CCNc2ccccc21 (centres undefined) | 95.4 | 59 |  | > 100 | 61.8 | > 100 | > 100 | > 100 | 93.9 | 86.8 |  |  |  |  |  | 
CC1(C)N=C(N)N=C(N)N1c1ccc(OCCCOc2ccccc2)c(Cl)c1 | 16.8 | 13.1 |  | 13.7 |  |  | 1.06 | 7.52 |  | 16.9 |  |  |  |  |  | 
Cc1ccc2c(=O)c(C(=O)N(CCO)CCO)c[nH]c2n1 | > 100 |  | > 100 | > 100 |  | > 100 | > 100 | > 100 | > 100 | > 100 |  |  |  |  |  | 
COC(=O)C1=C(C)NC2(C)OC(C)(O)C(C(C)=O)C12C(C)=O (centres undefined) | > 100 |  | 65.1 | > 100 |  | > 100 | > 100 | > 100 | > 100 | 54.6 |  |  |  |  |  | 
CC(C)CC(NC(=O)C(COc1ccc([N+](=O)[O-])cc1)Cc1ccccc1)C(=O)Nc1ccccc1 (centres undefined) | > 100 | 80.2 |  | > 100 | > 100 | > 100 | 20.2 | 31.2 |  | 74.1 |  |  |  |  |  | 
COc1cc(S(=O)(=O)N/N=C/c2cc(Br)c(O)c(OC)c2)c(OC)cc1NC(C)=O | > 100 |  |  | > 100 | > 100 | > 100 | > 100 | > 100 | > 100 | > 100 |  |  |  |  |  | 
CC(C)c1nccn1Cc1ccc(Cl)cc1Cl |  | 88.6 |  | > 100 | > 100 | > 100 | > 100 | > 100 |  | > 100 |  |  |  |  |  | 
CCOC(=O)C[n+]1ccc2c([nH]c3cc(OC)ccc32)c1C | > 100 | > 100 |  | > 100 |  |  | > 100 | > 100 |  | > 100 |  |  |  |  |  | 
CC1(C)CC2(C)OC(=N)C1(C#N)C2(C#N)C#N (centres undefined) | 38.1 | 24.4 | 37.7 | 11.1 |  | 30.3 | 31 | 29.9 | 37.7 | 31.7 |  |  |  |  |  | 
NC1CCCCC1N.O=S(=O)([O-])CCCN1CCN(CCO)CC1.O=S(=O)([O-])CCCN1CCN(CCO)CC1.[Pt+4] | 20.6 | > 63.4 |  | 21 |  |  | > 100 | > 100 |  | 23.4 | 0.587 | 9.55 | 2.29 | 43.1 | 13.1 | 8.14
COc1ccc(N2C(=O)C(N3C(=O)C=CC3=O)C2C=O)cc1 (centres undefined) |  | > 100 |  | > 100 | > 100 |  | > 100 | > 100 |  | > 100 |  |  |  |  |  | 
CCCCCCc1cn([C@H]2C[C@H](O)[C@@H](CO)O2)c(=O)[nH]c1=O |  | > 100 |  | > 100 |  |  | > 100 | > 100 |  | > 100 |  |  |  |  |  | 
CSC1NNC2(C(=O)N1)c1ccccc1-c1ccccc12 (centres undefined) | > 10 | > 10 | > 10 | > 10 | > 10 | > 10 | > 10 | > 10 | > 10 |  |  |  |  |  |  | 
Cc1ccc([N+](=O)[O-])cc1NC(=O)C(=O)C1CCC2=C(Sc3ccccc3N2)C1=O (centres undefined) | > 100 | > 100 | > 100 | > 100 |  | > 100 | > 100 | > 100 |  | > 100 |  |  |  |  |  | 
O=C1OC(c2ccccc2)=N/C1=C/N1CCCC1C(=O)O (centres undefined) |  | > 100 |  | > 100 |  |  | > 100 | > 100 |  | > 100 |  |  |  |  |  | 
COc1cccc2c1[C@]1(O)C(O)CCCC21 (some centres undefined) | > 100 | > 100 |  | > 100 |  |  | > 100 | > 100 |  | > 100 |  |  |  |  |  | 
O=C(C=P(c1ccccc1)(c1ccccc1)c1ccccc1)c1ccc(-c2ccc(F)cc2F)cc1 |  | 4.12 | 28.3 | 14.9 | 7.55 | 17.5 | 20.6 |  | 7.58 |  |  |  |  |  |  | 
C/C(=C\CNc1nc(Cl)nc2nc[nH]c12)CO | > 100 | > 100 | > 100 | > 100 | > 100 | > 100 | > 100 | > 100 | > 100 |  |  |  |  |  |  | 
CC1(C)O[C@@H](CP(c2cccc3ccccc23)c2cccc3ccccc23)[C@H](CP(c2cccc3ccccc23)c2cccc3ccccc23)O1 | > 100 | > 100 |  | > 100 | > 100 | > 100 | > 100 | > 100 | > 100 | > 100 |  |  |  |  |  | 
O=C1OC2C=CC1C1(CCOC1=O)C2 (centres undefined) | > 100 | > 100 |  | > 100 | > 100 |  | > 100 | > 100 |  | > 100 |  |  |  |  |  | 
Oc1ccc2ccccc2c1OCc1nnc(CCCCCCCCc2nnc(COc3c(O)ccc4ccccc34)o2)o1 | > 100 | > 100 |  | > 100 |  | > 100 | > 100 | > 100 |  | > 100 |  |  |  |  |  | 
